Data published in article PMC7939381, “MMP activation–associated aminopeptidase N reveals a bivalent 14-3-3 binding motif” (The Journal of Biological Chemistry, 2021).
One block for each compound: values may come before it. Where a SMILES comes first, the peptide text is derived from it. [ ]: non-standard residue; d: D form. pT = C[C@@H](OP(=O)(O)O)[C@H](N)C(=O)O; pS = N[C@@H](COP(=O)(O)O)C(=O)O

Tests used:
14-3-3σ = target: T1, 14-3-3σ (Homo sapiens, UniProt P31947); assay: direct binding fluorescence polarization (FP) assay, 14-3-3σ; settings: FITC-labeled peptide; Fig. 2A
T1 construct: N-terminally His6-tagged 14-3-3 full-length proteins were expressed with heterologous bacterial expression; made in house
T1 sequence (P31947 1-248): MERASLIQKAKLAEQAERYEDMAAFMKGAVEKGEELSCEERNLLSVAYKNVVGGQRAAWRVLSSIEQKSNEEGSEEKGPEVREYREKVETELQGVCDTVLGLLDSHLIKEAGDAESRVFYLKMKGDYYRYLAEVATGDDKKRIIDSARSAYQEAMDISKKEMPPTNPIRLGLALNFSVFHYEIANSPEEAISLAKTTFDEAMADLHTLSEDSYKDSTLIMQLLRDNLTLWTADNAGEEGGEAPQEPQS
Procedure: (§1) For the FP assay, the 14-3-3 proteins were diluted to a protein-specific start concentration in FP buffer (10 mM HEPES, pH 7.4, 150 mM NaCl, 2 mM DTT, 0.01% Tween 20). DMSO stocks of peptides were diluted in FP buffer to a concentration of 30 nM. For the assay, 10 μl of FP buffer were pipetted in 20 wells of a 384-well Corning black round bottom plate. A dilution series with 10 μl of protein solution was performed, and 5 μl of peptide solution was added to each well for a final volume of 15 μl. The plate was incubated for 60 min at room temperature. Measurement was performed at 25 °C in a Tecan Spark20M plate reader (λex = 470 nm, λem = 525 nm). Data analysis was performed with GraphPad Prism (version 5.03), and KD values were determined via a nonlinear regression fit of dose-response curves with variable slope (four parameters).

14-3-3η [1] = target: T2, 14-3-3η (Homo sapiens, UniProt Q04917); assay: direct binding FP assay, 14-3-3η
T2 construct: N-terminally His6-tagged 14-3-3 full-length proteins were expressed with heterologous bacterial expression; made in house
T2 sequence (Q04917 1-246): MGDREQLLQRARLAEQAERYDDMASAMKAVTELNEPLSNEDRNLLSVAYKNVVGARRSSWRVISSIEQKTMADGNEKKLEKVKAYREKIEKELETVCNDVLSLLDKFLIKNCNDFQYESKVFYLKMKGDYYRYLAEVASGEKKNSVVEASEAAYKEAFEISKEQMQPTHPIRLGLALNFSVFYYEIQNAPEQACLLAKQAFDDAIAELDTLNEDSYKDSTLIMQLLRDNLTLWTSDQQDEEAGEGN
Procedure: as §1

14-3-3η [2] = target: T2, 14-3-3η; assay: isothermal titration calorimetry (ITC) with 14-3-3η; assay type: binding; settings: T = 298 K; peptide per 14-3-3 protomer; mean ± S.D., n = 3
Procedure: The ITC experiments were performed on an automated MicroCal iTC200 (Malvern Panalytical). To prepare 14-3-3 proteins for ITC measurements, a buffer exchange to ITC buffer (50 mM HEPES, pH 7.4, 250 mM NaCl, 20 mM MgCl2) was performed on a Superdex 75 10/300 GL column (ÄKTA Pure FPLC system, GE Healthcare). For peptides 1, 7, and 17, a 500 μM solution of protein was titrated to a 50 μM solution of peptide in 18 steps (2-μl volume in 4 s, 180-s spacing) at 25 °C. For peptide 11, a 250 μM solution of protein was titrated to a 12.5 μM solution of peptide with the settings mentioned before. The reference power was set to […], and the stirring speed was set to 750 rpm. Analysis was performed using MicroCal ITC-ORIGIN analysis software.

14-3-3β/α = target: T3, 14-3-3β/α (Homo sapiens, UniProt P31946); assay: direct binding FP assay, 14-3-3β/α; settings: FITC-labeled peptide, Fig. 2C and Fig. S1
T3 construct: N-terminally His6-tagged 14-3-3 full-length proteins were expressed with heterologous bacterial expression; made in house
T3 sequence (P31946 1-246): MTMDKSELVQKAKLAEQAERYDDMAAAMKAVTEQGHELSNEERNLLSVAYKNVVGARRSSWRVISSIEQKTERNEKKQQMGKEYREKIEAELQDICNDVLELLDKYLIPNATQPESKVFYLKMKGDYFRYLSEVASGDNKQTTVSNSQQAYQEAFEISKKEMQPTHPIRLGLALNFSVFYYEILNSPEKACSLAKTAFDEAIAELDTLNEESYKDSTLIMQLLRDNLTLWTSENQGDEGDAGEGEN
Procedure: as §1

His6-14-3-3η = assay: pulldown of His6-14-3-3η from E. coli cell lysate with biotinylated peptides; assay type: binding, human; settings: biotinylated peptide on streptavidin beads; NTA-Atto488 stained SDS-PAGE, Fig. 2E
Procedure: (§2) 14-3-3–overexpressing E. coli cell lysate was prepared by lysing E. coli cells via sonication in pulldown buffer and removing cell debris by ultracentrifugation (53,350 rcf, 45 min, 4 °C). 24 nmol of Streptavidin Sepharose High Performance beads (GE Healthcare) were equilibrated with pulldown buffer (50 mM HEPES, pH 7.4, 250 mM NaCl, 20 mM MgCl2) and incubated with 24 nmol of biotin-1, biotin-6, or no peptide for 45 min on ice. Afterward, the beads were washed three times with pulldown buffer. Subsequently, the beads were incubated for 120 min in the prepared cell lysate. After incubation, beads were washed three times with pulldown buffer and split in half either for direct SDS-PAGE or for competition analysis, respectively. For competition, beads incubated with biotin-1 were incubated with 96 nmol of acetylated peptide 1 for 60 min and washed three times with pulldown buffer. For SDS-PAGE, 6 nmol of beads were added per lane on a Tris-Tricine ([52]) gel and run for 120 min at 150 V. After electrophoresis, gel was fixated for 90 min in a solution of 50% water, 40% EtOH, and 10% acetic acid and consequently washed two times for 30 min in water. Staining of the His6-tagged proteins in the gel was performed in a 1:1000 dilution of a 1 μg/μl solution of NTA-Atto488 (Sigma–Aldrich) for 60 min. Access stain was removed by two washing steps, each 60 min, in water. […]

His6-14-3-3β/α = assay: pulldown of His6-14-3-3β/α from E. coli cell lysate with biotinylated peptides; assay type: binding, human; settings: biotinylated peptide on streptavidin beads; NTA-Atto488 stained SDS-PAGE, Fig. S2B
Procedure: as §2

binding toward 14-3-3σ in direct FP assay (in words) (14-3-3σ): did not show any binding
Compound: KNANSpSPVA [compound 6, APN 39–47 pSer^44 peptide KNANSpSPVA, negative control]

Compound: CC(=O)N[C@@H](CCC(=O)O)C(=O)N[C@@H](CCCCN)C(=O)N[C@@H](CC(N)=O)C(=O)N[C@@H](CCCCN)C(=O)N[C@@H](CC(N)=O)C(=O)N[C@@H](C)C(=O)N[C@@H](CC(N)=O)C(=O)N[C@@H](COP(=O)(O)O)C(=O)N[C@@H](CO)C(=O)N1CCC[C@H]1C(=O)N[C@H](C(=O)N[C@@H](C)C(=O)N[C@@H](CO)C(=O)N[C@H](C(=O)N[C@H](C(=O)N1CCC[C@H]1C(=O)N[C@@H](CO)C(=O)N[C@@H](C)C(=O)N[C@@H](CO)C(=O)N[C@@H](C)C(=O)N[C@H](C(=O)N[C@H](C(=O)N[C@@H](CC(N)=O)C(=O)N1CCC[C@H]1C(=O)N[C@@H](C)C(=O)N[C@@H](CO)C(=O)N[C@@H](C)C(=O)N[C@H](C(=O)N[C@H](C(=O)N[C@@H](CC(C)C)C(=O)N[C@@H](CC(=O)O)C(=O)N[C@@H](CCC(N)=O)C(=O)N[C@@H](CO)C(=O)N[C@@H](CCCCN)C(=O)N[C@@H](C)C(=O)N[C@@H](Cc1c[nH]c2ccccc12)C(=O)N[C@@H](CC(N)=O)C(=O)N[C@@H](CCCNC(=N)N)C(=O)O)[C@@H](C)O)[C@@H](C)OP(=O)(O)O)[C@@H](C)O)[C@@H](C)O)[C@@H](C)O)[C@@H](C)O)C(C)C [compound 11] (Ac-EKNKNAN[pS]SPVASTTPSASATTNPASA[pT]TLDQSKAWNR-OH)
increase in overall affinity of 7 versus 11 (14-3-3η, FP) (14-3-3η [1]; pThr^63 combined with site 1, Fig. 4A and Fig. S3): ~500 fold
binding stoichiometry N (ITC, 14-3-3η) (14-3-3η [2]): 0.58 ± 0.01

Compound: CC(=O)N[C@@H](CCC(=O)O)C(=O)N[C@@H](CCCCN)C(=O)N[C@@H](CC(N)=O)C(=O)N[C@@H](CCCCN)C(=O)N[C@@H](CC(N)=O)C(=O)N[C@@H](C)C(=O)N[C@@H](CC(N)=O)C(=O)N[C@@H](COP(=O)(O)O)C(=O)N[C@@H](CO)C(=O)N1CCC[C@H]1C(=O)N[C@H](C(=O)N[C@@H](C)C(=O)N[C@@H](CO)C(=O)N[C@H](C(=O)N[C@H](C(=O)N1CCC[C@H]1C(=O)N[C@@H](CO)C(=O)N[C@@H](C)C(=O)N[C@@H](CO)C(=O)N[C@@H](C)C(=O)N[C@H](C(=O)N[C@H](C(=O)N[C@@H](CC(N)=O)C(=O)N1CCC[C@H]1C(=O)N[C@@H](C)C(=O)N[C@@H](CO)C(=O)N[C@@H](C)C(=O)N[C@H](C(=O)N[C@H](C(=O)N[C@@H](CC(C)C)C(=O)N[C@@H](CC(=O)O)C(=O)N[C@@H](CCC(N)=O)C(=O)N[C@@H](CO)C(=O)N[C@@H](CCCCN)C(=O)N[C@@H](C)C(=O)N[C@@H](Cc1c[nH]c2ccccc12)C(=O)N[C@@H](CC(N)=O)C(=O)N[C@@H](CCCNC(=N)N)C(=O)O)[C@@H](C)O)[C@@H](C)O)[C@@H](C)O)[C@@H](C)O)[C@@H](C)O)[C@@H](C)O)C(C)C [compound 7] (Ac-EKNKNAN[pS]SPVASTTPSASATTNPASATTLDQSKAWNR-OH)
binding stoichiometry N (ITC, 14-3-3η) (14-3-3η [2]): 1.13 ± 0.18

Compound: CC(=O)N[C@@H](CC(N)=O)C(=O)N[C@@H](CCCCN)C(=O)N[C@@H](CC(N)=O)C(=O)N[C@@H](C)C(=O)N[C@@H](CC(N)=O)C(=O)N[C@@H](COP(=O)(O)O)C(=O)N[C@@H](CO)C(=O)N1CCC[C@H]1C(=O)N[C@H](C(=O)O)C(C)C [compound 1] (Ac-NKNAN[pS]SPV-OH)
relative affinity of 14-3-3η compared with 14-3-3σ (relative affinity = 1) (14-3-3η [1]; FP assay, FITC-labeled peptide, Fig. 2C and Fig. S1): 18.6 fold
relative affinity of 14-3-3β/α compared with 14-3-3σ (relative affinity = 1) (14-3-3β/α): 5.7 fold
binding stoichiometry N (ITC, 14-3-3η) (14-3-3η [2]): 1.05 ± 0.02
pulldown of His6-14-3-3η (in words) (His6-14-3-3η): binds specifically
pulldown of His6-14-3-3β/α (in words) (His6-14-3-3β/α): binds specifically
